The values that follow come from publication PMC3196665 (Chemical biology & drug design, 2011).

In series [1] the test system is Eph receptors. The note with it: ref [36]; cited from earlier work.
Series [2] relates to EphB6. The series is described as follows: ELISA: ephrin-B2 AP binding to immobilized EphB6 Fc. (In general: ELISA stands for enzyme-linked immunosorbent assay.)
Series [3] concerns EphA7. The series can be described thus: ELISA: ephrin-A5 AP binding to immobilized EphA7 Fc.
Series [4] has as its target EphA4 Fc (Mus musculus, UniProt Q03137). The series is described as follows: ELISA: inhibition of ephrin-A5 AP binding to immobilized EphA4 Fc.
The subject of series [5] is EphB2. The series can be described thus: ELISA: ephrin-B2 AP binding to immobilized EphB2 Fc.
Series [6] has as its system PC3 cells. The series is described as follows: PC3 cell retraction assay. It is filed as cell-based.
For series [7], the system named is EphB3. The series can be described thus: ELISA: ephrin-B2 AP binding to immobilized EphB3 Fc.
Series [8] concerns EphA5. The series can be described thus: ELISA: ephrin-A5 AP binding to immobilized EphA5 Fc.
Series [9] concerns EphA6. The series is described as follows: ELISA: ephrin-A5 AP binding to immobilized EphA6 Fc.
Series [10] relates to EphA3. The series can be described thus: ELISA: ephrin-A5 AP binding to immobilized EphA3 Fc.
Series [11] concerns the target EphA4 (Mus musculus, UniProt Q03137). The series is described as follows: Ephrin-induced EphA4 tyrosine phosphorylation in HT22 neuronal cells. It is filed as cell-based. The note with it: ephrin-A5 Fc.
In series [12] the test system is HUVE cells. The series is described as follows: MTT assay, HUVE cell viability. It is filed as cell-based. The conditions noted are these: 200 μM.
Series [13] concerns the target T1, EphA2 (Homo sapiens, UniProt P29317). It is filed as cell-based.
Series [14] has as its system EphB2. The series can be described thus: Ephrin-B2 Fc-induced EphB2 tyrosine phosphorylation in COS cells. The series is classed as cell-based.
Series [15] has as its system EphA2.
The subject of series [16] is EphB4. The series is described as follows: ELISA: ephrin-B2 AP binding to immobilized EphB4 Fc.
Series [17] in a line: Stability of compound in DMSO, followed by ELISA IC50. It is filed as physicochemical. The note with it: DMSO at ≤ 10 mM, room temperature, after 4 days.
Series [18] deals with HUVE cells. The series is described as follows: Capillary-like tube formation of HUVECs on Matrigel. It is filed as cell-based. The conditions noted are these: 18 hours.
For series [19], the system named is EphB1. The series can be described thus: ELISA: ephrin-B2 AP binding to immobilized EphB1 Fc.
The target in series [20] is T1, EphA2. The series can be described thus: TNFα-induced EphA2 tyrosine phosphorylation in HUVE cells. It is filed as cell-based. The conditions noted are these: 20 nM TNFα, 2 hours.
Series [21] deals with EphA2. The series is described as follows: Ephrin-A1 Fc-induced EphA2 tyrosine phosphorylation in COS cells. The series is classed as cell-based.
The target of series [22] is EphA4 AP binding to ephrin-A and ephrin-B ligands (Homo sapiens, UniProt P54764). The conditions noted are these: ref [37]; cited from earlier work.
The target in series [23] is EphA4 ligand-binding domain (Homo sapiens, UniProt P54764). The series is described as follows: 1H NMR of compound with increasing EphA4 ligand-binding domain. The conditions noted are these: 10 mM phosphate buffer, pH 6.5; unmodified compound.

Read-outs that look alike come from different tables or passages of the source.

T1 sequence (P29317 24-976): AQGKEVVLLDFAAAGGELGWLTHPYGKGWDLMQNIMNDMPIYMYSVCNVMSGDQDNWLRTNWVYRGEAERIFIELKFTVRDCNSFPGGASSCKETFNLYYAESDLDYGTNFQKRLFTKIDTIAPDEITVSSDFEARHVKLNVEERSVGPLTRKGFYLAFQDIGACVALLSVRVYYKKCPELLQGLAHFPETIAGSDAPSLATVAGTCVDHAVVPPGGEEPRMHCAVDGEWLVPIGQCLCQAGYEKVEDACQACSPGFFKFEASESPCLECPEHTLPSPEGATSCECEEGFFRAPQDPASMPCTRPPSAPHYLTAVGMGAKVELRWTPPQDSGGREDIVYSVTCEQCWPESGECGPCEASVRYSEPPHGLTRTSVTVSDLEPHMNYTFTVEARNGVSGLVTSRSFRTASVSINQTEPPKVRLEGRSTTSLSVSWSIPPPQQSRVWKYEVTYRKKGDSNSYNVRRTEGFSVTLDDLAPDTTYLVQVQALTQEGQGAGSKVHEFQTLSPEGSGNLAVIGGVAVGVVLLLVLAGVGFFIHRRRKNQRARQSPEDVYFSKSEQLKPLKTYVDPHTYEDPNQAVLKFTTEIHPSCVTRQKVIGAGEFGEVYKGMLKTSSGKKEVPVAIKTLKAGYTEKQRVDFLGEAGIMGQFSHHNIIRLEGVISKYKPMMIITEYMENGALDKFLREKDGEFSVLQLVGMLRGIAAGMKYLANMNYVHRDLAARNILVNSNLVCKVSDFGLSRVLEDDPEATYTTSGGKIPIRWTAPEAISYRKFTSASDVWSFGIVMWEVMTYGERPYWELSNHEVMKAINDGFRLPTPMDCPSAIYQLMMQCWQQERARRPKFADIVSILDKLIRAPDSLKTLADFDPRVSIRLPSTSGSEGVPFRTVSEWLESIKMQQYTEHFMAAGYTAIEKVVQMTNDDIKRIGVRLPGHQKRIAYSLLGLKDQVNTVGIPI
EphA4 Fc, sequence (Q03137 20-547): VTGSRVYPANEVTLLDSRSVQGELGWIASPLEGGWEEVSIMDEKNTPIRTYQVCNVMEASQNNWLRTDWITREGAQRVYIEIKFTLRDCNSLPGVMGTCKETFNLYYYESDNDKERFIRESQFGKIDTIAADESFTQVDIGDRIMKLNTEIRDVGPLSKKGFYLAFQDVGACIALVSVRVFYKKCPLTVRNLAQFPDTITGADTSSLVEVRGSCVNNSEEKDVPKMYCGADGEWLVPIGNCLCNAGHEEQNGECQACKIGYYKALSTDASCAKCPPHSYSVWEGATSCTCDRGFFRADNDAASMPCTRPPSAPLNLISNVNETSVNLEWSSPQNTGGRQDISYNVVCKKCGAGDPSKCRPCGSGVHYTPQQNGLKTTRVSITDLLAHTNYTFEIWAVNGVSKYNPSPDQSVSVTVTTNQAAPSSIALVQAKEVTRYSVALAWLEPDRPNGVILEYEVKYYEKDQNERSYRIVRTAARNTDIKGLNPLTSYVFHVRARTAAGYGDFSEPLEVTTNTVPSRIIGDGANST
EphA4 AP binding to ephrin-A and ephrin-B ligands, sequence (P54764 30-209 limits assumed): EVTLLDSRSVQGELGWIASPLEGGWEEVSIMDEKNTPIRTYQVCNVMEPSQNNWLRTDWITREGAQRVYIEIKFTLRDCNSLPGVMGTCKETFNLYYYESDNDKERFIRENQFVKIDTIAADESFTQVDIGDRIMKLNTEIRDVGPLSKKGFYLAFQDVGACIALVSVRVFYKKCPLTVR
EphA4, sequence (Q03137 20-986): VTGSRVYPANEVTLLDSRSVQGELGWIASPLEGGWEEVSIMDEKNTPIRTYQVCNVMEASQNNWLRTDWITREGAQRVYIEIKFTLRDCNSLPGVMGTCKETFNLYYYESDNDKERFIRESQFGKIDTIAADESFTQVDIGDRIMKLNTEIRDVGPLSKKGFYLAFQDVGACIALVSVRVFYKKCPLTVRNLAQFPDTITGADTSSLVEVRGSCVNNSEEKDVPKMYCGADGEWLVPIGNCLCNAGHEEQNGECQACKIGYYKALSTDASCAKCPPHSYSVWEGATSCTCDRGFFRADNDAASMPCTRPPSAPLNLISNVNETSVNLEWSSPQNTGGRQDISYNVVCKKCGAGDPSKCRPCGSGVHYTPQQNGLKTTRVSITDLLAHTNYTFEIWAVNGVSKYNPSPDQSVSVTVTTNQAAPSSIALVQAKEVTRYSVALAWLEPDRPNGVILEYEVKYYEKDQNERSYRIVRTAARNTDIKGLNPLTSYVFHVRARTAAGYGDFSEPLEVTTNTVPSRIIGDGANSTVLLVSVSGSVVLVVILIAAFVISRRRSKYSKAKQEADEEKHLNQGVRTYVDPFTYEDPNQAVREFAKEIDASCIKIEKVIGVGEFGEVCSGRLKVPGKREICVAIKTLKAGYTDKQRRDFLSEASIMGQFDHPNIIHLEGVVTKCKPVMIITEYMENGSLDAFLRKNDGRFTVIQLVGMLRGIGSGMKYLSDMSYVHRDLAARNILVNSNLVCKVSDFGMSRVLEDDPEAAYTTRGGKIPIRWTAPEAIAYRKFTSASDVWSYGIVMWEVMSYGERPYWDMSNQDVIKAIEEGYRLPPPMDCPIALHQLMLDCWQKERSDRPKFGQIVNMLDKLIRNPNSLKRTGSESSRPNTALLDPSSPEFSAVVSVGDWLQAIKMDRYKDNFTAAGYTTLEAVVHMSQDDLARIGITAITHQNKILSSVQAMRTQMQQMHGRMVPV
EphA4 ligand-binding domain, sequence (P54764 28-208): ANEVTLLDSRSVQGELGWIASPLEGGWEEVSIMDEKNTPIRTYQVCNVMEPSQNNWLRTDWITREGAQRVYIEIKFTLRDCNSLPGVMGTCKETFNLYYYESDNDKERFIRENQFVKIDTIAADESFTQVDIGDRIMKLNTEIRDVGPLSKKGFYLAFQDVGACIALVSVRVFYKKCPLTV

Consider `C[C@H](CCC(=O)O)[C@H]1CC[C@H]2[C@@H]3CC[C@@H]4C[C@H](O)CC[C@]4(C)[C@H]3CC[C@]12C` [lithocholic acid], for which the “Inhibition of Eph receptors” value in series [1] is recorded as “inhibit with similar low potency all Eph receptors examined”.
`O=C(/C=C/c1ccc(-c2ccc(O)c(C(=O)O)c2)o1)/C=C/c1ccc(-c2ccc(O)c(C(=O)O)c2)o1` [Compound 76D10]: in [2], the “Inhibition of ephrin-B2 binding to EphB6” value is “inhibits with substantial potency”. In addition, the “Inhibition of ephrin-A5 binding to EphA7” value in series [3] is listed as “inhibits with substantial potency”. Moreover, the “Selectivity among EphA and EphB receptors examined” value in [4] and in [15] was “preferentially inhibits” each time. For the same compound, the “Time to binding equilibrium after addition of ephrin-A5 AP with compound” value in [4] was no more than 3 h. The “Inhibitory activity in the presence of BSA” value in series [4] (0.1 mg/ml BSA) is on record as “lost”. The “Inhibitory activity in the presence of collagen” value in series [4] (0.1 mg/ml collagen) is on record as “not affected”. Moreover, the “Reversibility of binding to EphA4 in ELISA” value in series [4] (3 hour incubation, wash, 24 hours in binding buffer) is listed as “does not appear to be reversible”. The “Mode of inhibition (Bmax and KD of ephrin-A5 AP binding curves)” value in series [4] (increasing 76D10 concentrations) is recorded as “consistent with competitive inhibition”. Also, the “Inhibition of ephrin binding to EphB2” value in series [5] is listed as “much lower to undetectable inhibitory activity”. Moreover, in series [6], the “Effect on cell morphology in the absence of ephrin” value is “does not affect cell morphology”. The “Reversal of the effect of ephrin-A1 on cell area” value is given as “partially” in series [6] (25 μM), “partially” in series [6] (50 μM) and “reverted completely” in series [6] (100 μM). Also, the “Inhibition of ephrin-A1 Fc-induced cell retraction” value in [6] (concentrations between 25 and 100 μM) is given as “significantly counteracts these effects”. Also, the “Inhibition of ephrin binding to EphB3” value in series [7] was “much lower to undetectable inhibitory activity”. In addition, in series [8], the “Inhibition of ephrin-A5 binding to EphA5” value is reported as “inhibits with substantial potency”. The “Inhibition of ephrin-A5 binding to EphA6” value in series [9] is recorded as “inhibits with substantial potency”. In addition, the “Inhibition of ephrin binding to EphA3” value in series [10] is given as “much lower to undetectable inhibitory activity”. The “Inhibition of EphA4 tyrosine phosphorylation” value in series [11] is “inhibits EphA4 tyrosine phosphorylation”. Besides, the “HUVE cell viability (MTT)” value in series [12] (three days) was “minimally affected”; in [12] (up to one day), “not affected”. For the same compound, the “Effect of BSA in culture medium on compound activity” value in [13] (0.1 mg/mL BSA, COS and PC3 cells) is “inhibited the activity”. The “Inhibition of EphA2 tyrosine phosphorylation” value in [13] (PC3 cells, ephrin-A1 Fc) is recorded as “inhibits tyrosine phosphorylation”; in [21], “inhibits tyrosine phosphorylation”. For the same compound, the “Inhibition of EphB2 tyrosine phosphorylation” value in series [14] was “not EphB2 tyrosine phosphorylation”. Besides, in series [16], the “Inhibition of ephrin-B2 binding to EphB4” value is given as “inhibits with substantial potency”. Besides, in [17], the “Increase in IC50 values on storage in DMSO” value is reported as 10 fold. Besides, in series [18], the “Inhibition of capillary-like tube formation” value was “inhibits capillary-like tube formation”. Moreover, the “Inhibition of ephrin binding to EphB1” value in series [19] is “much lower to undetectable inhibitory activity”. The “Inhibition of EphA2 tyrosine phosphorylation in response to TNFα” value in series [20] is reported as “inhibits EphA2 tyrosine phosphorylation”.
In the case of `Cc1ccc(C)n1-c1ccc(O)c(C(=O)O)c1` [Compound 2], the “Inhibition of EphA4 AP binding to ephrin-A4 and ephrin-B2” value in [22] is on record as “do not efficiently inhibit”.
In the case of `COC(=O)/C=C/c1ccc(-c2ccc(O)c(C(=O)OC)c2)o1` [Compound 76A5, (E)-methyl 2-hydroxy-5-(5-(3-methoxy-3-oxoprop-1-en-1-yl)furan-2-yl)benzoate], the “Inhibitory activity on ephrin-A5 AP binding to EphA4 Fc” value in series [4] was “did not show detectable inhibitory activity”.
Regarding `Cc1ccc(C)n1-c1ccc(C(=O)O)c(O)c1` [Compound 1, reference compound], the “Change of activity in ephrin-A5-EphA4 ELISA on storage” value in series [4] (dry form exposed to air at room temperature) is “becomes progressively more active”. Also, the “Inhibition of ephrin-A5 AP binding to EphA4 Fc” value in [4] (newly synthesized preparation) is “did not show detectable inhibition”; in [4] (purchased preparation), “activity comparable to that previously reported”. The “Inhibition of EphA2 phosphorylation in cells stimulated with ephrin-A1 Fc” value is “did not show detectable inhibition” in [13] (newly synthesized preparation, PC3 cells) and “activity comparable to that previously reported” in series [13] (purchased preparation, PC3 cells). The “Binding to EphA4 (resonance peak shifts of compound protons)” value in series [23] is listed as “some, albeit weak, ability to bind to EphA4”. For the same compound, the “Inhibition of EphA4 AP binding to ephrin-A4 and ephrin-B2” value in series [22] is given as “do not efficiently inhibit”.
Take `O=Cc1ccc(-c2ccc(O)c(C(=O)O)c2)o1` [Compound 76B8, 5-(5-formylfuran-2-yl)-2-hydroxybenzoic acid]: the “Inhibitory activity on ephrin-A5 AP binding to EphA4 Fc” value in series [4] is “did not show detectable inhibitory activity”.
